Source: paper PMC7156458, “Synthetic biology based construction of biological activity-related library of fungal decalin-containing diterpenoid pyrones” (Nature Communications, 2020)

Target: Aβ42 (Homo sapiens, UniProt P05067)
Assay: Th-T (thioflavin-T) assay of Aβ42 aggregation
Assay type: biochemical
Conditions: for Th-T assay plate reading, mean of three wells (Supplementary Fig. 47): source data, Ab alone and No Ab as controls

Sequence of Aβ42 (P05067 672-713): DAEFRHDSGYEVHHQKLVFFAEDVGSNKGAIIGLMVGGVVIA

For `C=C1CC[C@H]2[C@]3(C)C[C@H](C=C(C)C)O[C@H]3CC[C@]2(C)[C@@H]1Cc1c(OC)oc(CO)c(C)c1=O` [Compound 18], the “Th-T fluorescence, mean of three wells” value (Aβ42 aggregation time course, reading M117) was 3.827, the “Th-T fluorescence, mean of three wells” value (Aβ42 aggregation time course, reading M118) was 3.826 and the “Th-T fluorescence, mean of three wells” value (Aβ42 aggregation time course, reading M119) was 3.802. For the same compound, the “Th-T fluorescence, mean of three wells” value (Aβ42 aggregation time course, reading M120) was 3.809, the “Th-T fluorescence, mean of three wells” value (Aβ42 aggregation time course, reading M121) was 3.768 and the “Th-T fluorescence, mean of three wells” value (Aβ42 aggregation time course, reading M122) was 3.8239. For the same compound, the “Th-T fluorescence, mean of three wells” value (Aβ42 aggregation time course, reading M123) was 3.779, the “Th-T fluorescence, mean of three wells” value (Aβ42 aggregation time course, reading M124) was 3.775 and the “Th-T fluorescence, mean of three wells” value (Aβ42 aggregation time course, reading M125) was 3.791. For the same compound, the “Th-T fluorescence, mean of three wells” value (Aβ42 aggregation time course, reading M126) was 3.753, the “Th-T fluorescence, mean of three wells” value (Aβ42 aggregation time course, reading M127) was 3.782 and the “Th-T fluorescence, mean of three wells” value (Aβ42 aggregation time course, reading M128) was 3.792. The “Th-T fluorescence, mean of three wells” value (Aβ42 aggregation time course, reading M129) was 3.762, the “Th-T fluorescence, mean of three wells” value (Aβ42 aggregation time course, reading M130) was 3.763 and the “Th-T fluorescence, mean of three wells” value (Aβ42 aggregation time course, reading M131) was 3.755. The “Th-T fluorescence, mean of three wells” value (Aβ42 aggregation time course, reading M132) was 3.815, the “Th-T fluorescence, mean of three wells” value (Aβ42 aggregation time course, reading M133) was 3.777 and the “Th-T fluorescence, mean of three wells” value (Aβ42 aggregation time course, reading M134) was 3.764. The “Th-T fluorescence, mean of three wells” value (Aβ42 aggregation time course, reading M135) was 3.756, the “Th-T fluorescence, mean of three wells” value (Aβ42 aggregation time course, reading M136) was 3.746 and the “Th-T fluorescence, mean of three wells” value (Supplementary Fig. 47, reading M137) was 3.774. For the same compound, the “Th-T fluorescence, mean of three wells” value (Supplementary Fig. 47, reading M138) was 3.771, the “Th-T fluorescence, mean of three wells” value (Supplementary Fig. 47, reading M139) was 3.713 and the “Th-T fluorescence, mean of three wells” value (Supplementary Fig. 47, reading M140) was 3.758. For the same compound, the “Th-T fluorescence, mean of three wells” value (Supplementary Fig. 47, reading M141) was 3.7322, the “Th-T fluorescence, mean of three wells” value (Supplementary Fig. 47, reading M142) was 3.721 and the “Th-T fluorescence, mean of three wells” value (Supplementary Fig. 47, reading M143) was 3.695. The “Th-T fluorescence, mean of three wells” value (Supplementary Fig. 47, reading M144) was 3.702, the “Th-T fluorescence, mean of three wells” value (Supplementary Fig. 47, reading M145) was 3.716 and the “Th-T fluorescence, mean of three wells” value (Supplementary Fig. 47 source data, measurement M37 of time course) was 3.803. The “Th-T fluorescence, mean of three wells” value (Supplementary Fig. 47 source data, measurement M38 of time course) was 3.788, the “Th-T fluorescence, mean of three wells” value (Supplementary Fig. 47 source data, measurement M39 of time course) was 3.823 and the “Th-T fluorescence, mean of three wells” value (Supplementary Fig. 47 source data, measurement M40 of time course) was 3.844. The “Th-T fluorescence, mean of three wells” value (Supplementary Fig. 47 source data, measurement M41 of time course) was 3.831, the “Th-T fluorescence, mean of three wells” value (Supplementary Fig. 47 source data, measurement M42 of time course) was 3.8461 and the “Th-T fluorescence, mean of three wells” value (Supplementary Fig. 47 source data, measurement M43 of time course) was 3.853. For the same compound, the “Th-T fluorescence, mean of three wells” value (Supplementary Fig. 47 source data, measurement M44 of time course) was 3.884, the “Th-T fluorescence, mean of three wells” value (Supplementary Fig. 47 source data, measurement M45 of time course) was 3.893 and the “Th-T fluorescence, mean of three wells” value (Supplementary Fig. 47 source data, measurement M46 of time course) was 3.909. The “Th-T fluorescence, mean of three wells” value (Supplementary Fig. 47 source data, measurement M47 of time course) was 3.912, the “Th-T fluorescence, mean of three wells” value (Supplementary Fig. 47 source data, measurement M48 of time course) was 3.912 and the “Th-T fluorescence, mean of three wells” value (Supplementary Fig. 47 source data, measurement M49 of time course) was 3.934. For the same compound, the “Th-T fluorescence, mean of three wells” value (Supplementary Fig. 47 source data, measurement M50 of time course) was 3.962, the “Th-T fluorescence, mean of three wells” value (Supplementary Fig. 47 source data, measurement M51 of time course) was 3.932 and the “Th-T fluorescence, mean of three wells” value (Supplementary Fig. 47 source data, measurement M52 of time course) was 3.964. For the same compound, the “Th-T fluorescence, mean of three wells” value (Supplementary Fig. 47 source data, measurement M53 of time course) was 3.941, the “Th-T fluorescence, mean of three wells” value (Supplementary Fig. 47 source data, measurement M54 of time course) was 3.968 and the “Th-T fluorescence, mean of three wells” value (Supplementary Fig. 47 source data, measurement M55 of time course) was 3.9543. For the same compound, the “Th-T fluorescence, mean of three wells” value (Supplementary Fig. 47 source data, measurement M56 of time course) was 4.004, the “Th-T assay plate reading, mean of three wells (Supplementary Fig. 47)” value (“Th-T assay plate reading, mean” below) (measurement M1) was 0.2027 and the “Th-T assay plate reading, mean” value (measurement M2) was 0.2169. The “Th-T assay plate reading, mean” value (measurement M3) was 0.2567, the “Th-T assay plate reading, mean” value (measurement M4) was 0.2868 and the “Th-T assay plate reading, mean” value (measurement M5) was 0.363. For the same compound, the “Th-T assay plate reading, mean” value (measurement M6) was 0.3665, the “Th-T assay plate reading, mean” value (measurement M7) was 0.43 and the “Th-T assay plate reading, mean” value (measurement M8) was 0.4699. The “Th-T assay plate reading, mean” value (measurement M9) was 0.5243, the “Th-T assay plate reading, mean” value (measurement M10) was 0.5956 and the “Th-T assay plate reading, mean” value (measurement M11) was 0.7582. For the same compound, the “Th-T assay plate reading, mean” value (measurement M12) was 1.169, the “Th-T assay plate reading, mean” value (measurement M13) was 1.941 and the “Th-T assay plate reading, mean” value (measurement M14) was 2.67. The “Th-T assay plate reading, mean” value (measurement M15) was 3.082, the “Th-T assay plate reading, mean” value (measurement M16) was 3.287 and the “Th-T fluorescence, mean of three wells” value (reading M17, Supplementary Fig. 47 source data) was 3.39. For the same compound, the “Th-T fluorescence, mean of three wells” value (reading M18, Supplementary Fig. 47 source data) was 3.467, the “Th-T fluorescence, mean of three wells” value (reading M19, Supplementary Fig. 47 source data) was 3.485 and the “Th-T fluorescence, mean of three wells” value (reading M20, Supplementary Fig. 47 source data) was 3.511. The “Th-T fluorescence, mean of three wells” value (reading M21, Supplementary Fig. 47 source data) was 3.555, the “Th-T fluorescence, mean of three wells” value (reading M22, Supplementary Fig. 47 source data) was 3.568 and the “Th-T fluorescence, mean of three wells” value (reading M23, Supplementary Fig. 47 source data) was 3.6. For the same compound, the “Th-T fluorescence, mean of three wells” value (reading M24, Supplementary Fig. 47 source data) was 3.61, the “Th-T fluorescence, mean of three wells” value (reading M25, Supplementary Fig. 47 source data) was 3.637 and the “Th-T fluorescence, mean of three wells” value (reading M26, Supplementary Fig. 47 source data) was 3.637. For the same compound, the “Th-T fluorescence, mean of three wells” value (reading M27, Supplementary Fig. 47 source data) was 3.663, the “Th-T fluorescence, mean of three wells” value (reading M28, Supplementary Fig. 47 source data) was 3.673 and the “Th-T fluorescence, mean of three wells” value (reading M29, Supplementary Fig. 47 source data) was 3.697. The “Th-T fluorescence, mean of three wells” value (reading M30, Supplementary Fig. 47 source data) was 3.695, the “Th-T fluorescence, mean of three wells” value (reading M31, Supplementary Fig. 47 source data) was 3.715 and the “Th-T fluorescence, mean of three wells” value (reading M32, Supplementary Fig. 47 source data) was 3.7502. For the same compound, the “Th-T fluorescence, mean of three wells” value (reading M33, Supplementary Fig. 47 source data) was 3.748, the “Th-T fluorescence, mean of three wells” value (reading M34, Supplementary Fig. 47 source data) was 3.745 and the “Th-T fluorescence, mean of three wells” value (reading M35, Supplementary Fig. 47 source data) was 3.779. For the same compound, the “Th-T fluorescence, mean of three wells” value (reading M36, Supplementary Fig. 47 source data) was 3.8, the “Th-T fluorescence, mean of three wells” value (time course, reading M57) was 3.991 and the “Th-T fluorescence, mean of three wells” value (time course, reading M58) was 4.013. The “Th-T fluorescence, mean of three wells” value (time course, reading M59) was 3.958, the “Th-T fluorescence, mean of three wells” value (time course, reading M60) was 3.988 and the “Th-T fluorescence, mean of three wells” value (time course, reading M61) was 3.973. For the same compound, the “Th-T fluorescence, mean of three wells” value (time course, reading M62) was 3.97, the “Th-T fluorescence, mean of three wells” value (time course, reading M63) was 3.951 and the “Th-T fluorescence, mean of three wells” value (time course, reading M64) was 3.976. The “Th-T fluorescence, mean of three wells” value (time course, reading M65) was 3.959, the “Th-T fluorescence, mean of three wells” value (time course, reading M66) was 3.962 and the “Th-T fluorescence, mean of three wells” value (time course, reading M67) was 3.958. The “Th-T fluorescence, mean of three wells” value (time-course reading M97, Supplementary Fig. 47 source data) was 3.893, the “Th-T fluorescence, mean of three wells” value (time-course reading M98, Supplementary Fig. 47 source data) was 3.89 and the “Th-T fluorescence, mean of three wells” value (time-course reading M99, Supplementary Fig. 47 source data) was 3.924. For the same compound, the “Th-T fluorescence, mean of three wells” value (time-course reading M100, Supplementary Fig. 47 source data) was 3.864, the “Th-T fluorescence, mean of three wells” value (time-course reading M101, Supplementary Fig. 47 source data) was 3.863 and the “Th-T fluorescence, mean of three wells” value (time-course reading M102, Supplementary Fig. 47 source data) was 3.862. The “Th-T fluorescence, mean of three wells” value (time-course reading M103, Supplementary Fig. 47 source data) was 3.898, the “Th-T fluorescence, mean of three wells” value (time-course reading M104, Supplementary Fig. 47 source data) was 3.892 and the “Th-T fluorescence, mean of three wells” value (time-course reading M105, Supplementary Fig. 47 source data) was 3.876. The “Th-T fluorescence, mean of three wells” value (time-course reading M106, Supplementary Fig. 47 source data) was 3.8607, the “Th-T fluorescence, mean of three wells” value (time-course reading M107, Supplementary Fig. 47 source data) was 3.854 and the “Th-T fluorescence, mean of three wells” value (time-course reading M108, Supplementary Fig. 47 source data) was 3.8485. For the same compound, the “Th-T fluorescence, mean of three wells” value (time-course reading M109, Supplementary Fig. 47 source data) was 3.821, the “Th-T fluorescence, mean of three wells” value (time-course reading M110, Supplementary Fig. 47 source data) was 3.872 and the “Th-T fluorescence, mean of three wells” value (time-course reading M111, Supplementary Fig. 47 source data) was 3.799. The “Th-T fluorescence, mean of three wells” value (time-course reading M112, Supplementary Fig. 47 source data) was 3.848, the “Th-T fluorescence, mean of three wells” value (time-course reading M113, Supplementary Fig. 47 source data) was 3.819 and the “Th-T fluorescence, mean of three wells” value (time-course reading M114, Supplementary Fig. 47 source data) was 3.862. The “Th-T fluorescence, mean of three wells” value (time-course reading M115, Supplementary Fig. 47 source data) was 3.831 and the “Th-T fluorescence, mean of three wells” value (time-course reading M116, Supplementary Fig. 47 source data) was 3.8198.
